Assays:
[1] = tested on: HT29 (colon adenocarcinoma); assay: SRB cytotoxicity assay, HT29; format: cell-based, human; conditions: for EC50: Homo sapiens, HT-29, SRB assay, 96 h of treatment, HT29; for Selectivity index (SI) HT29: SI = EC50 (NIH 3T3)/EC50 (HT29)
Description: (§1) The cytotoxicity of ursolic and betulinic carboxamides 3–30 was determined in sulforhodamine B (SRB) assays.
(§2) The cell lines used were human cancer cell lines: 518A2 (melanoma), A2780 (ovarian carcinoma), HT29 (colon adenocarcinoma), MCF-7 (breast adenocarcinoma), 8505C (thyroid carcinoma) and non-malignant mouse fibroblasts NIH 3T3. Cultures were maintained as monolayers in RPMI 1640 medium with L-glutamine (Capricorn Scientific GmbH, Ebsdorfergrund, Germany) supplemented with 10% heat inactivated fetal bovineserum (Sigma-Aldrich Chemie GmbH, Steinheim, Germany) and penicillin/streptomycin (Capricorn Scientific GmbH, Ebsdorfergrund, Germany) at 37 °C in a humidified atmosphere with 5% CO2.
(§3) The cytotoxicity of the compounds was evaluated using the sulforhodamine-B (Kiton-Red S, ABCR) micro culture colorimetric assay. Cells were seeded into 96-well plates on day 0 at appropriate cell densities to prevent confluence of the cells during the period of experiment. After 24 h, the cells were treated with 6 different concentrations (1, 3, 7, 12, 20 and 30 µM) minimum. The final concentration of DMSO/DMF never exceeded 0.5%, which was non-toxic to the cells. After a 96 h treatment, the supernatant medium from the 96-well plates was discarded, the cells were fixed with 10% trichloroacetic acid (TCA) and allowed to rest at 4 °C. After 24 h fixation, the cells were washed in a strip washer and dyed with SRB solution (100 µL, 0.4% in 1% acetic acid) for about 20 min. After dying, the plates were washed four times with 1% acetic acid to remove the excess of the dye and allowed to air-dry overnight. Tris base solution (200 µL, 10 mM) was added to each well and absorbance was measured at λ = 570 nm using a 96-well plate reader (Tecan Spectra, Crailsheim, Germany). The EC50 values were averaged from three independent experiments performed each in triplicate calculated from semi logarithmic dose response curves applying a non-linear 4P Hills-slope equation (GraphPad Prism5; variables top and bottom were set to 100 and 0, respectively).

518A2 (melanoma) = assay: SRB cytotoxicity assay, 518A2; format: cell-based, human; conditions: for EC50: Homo sapiens, SRB assay, 96 h of treatment, 518A2; for Selectivity index (SI) 518A2: SI = EC50 (NIH 3T3)/EC50 (518A2)
Description: as §1, §2, §3

[2] = tested on: A2780 (ovarian carcinoma); assay: SRB cytotoxicity assay, A2780; format: cell-based, human; conditions: for EC50: Homo sapiens, SRB assay, 96 h of treatment, A2780; for Selectivity index (SI) A2780: SI = EC50 (NIH 3T3)/EC50 (A2780)
Description: as §1, §2, §3

[3] = tested on: non-malignant mouse fibroblasts NIH 3T3; assay: SRB cytotoxicity assay, NIH 3T3; format: cell-based; conditions: NIH3T3, 96 h of treatment
Description: as §1, §2, §3

[4] = tested on: MCF-7 (breast adenocarcinoma); assay: SRB cytotoxicity assay, MCF-7; format: cell-based, human; conditions: for EC50: Homo sapiens, MCF7, SRB assay, 96 h of treatment, MCF-7; for Selectivity index (SI) MCF-7: SI = EC50 (NIH 3T3)/EC50 (MCF-7)
Description: as §1, §2, §3

[5] = tested on: 8505C (thyroid carcinoma); assay: SRB cytotoxicity assay, 8505C; format: cell-based, human; conditions: for EC50: Homo sapiens, SRB assay, 96 h of treatment, 8505C; for Selectivity index (SI) 8505C: SI = EC50 (NIH 3T3)/EC50 (8505C)
Description: as §1, §2, §3

Row | SMILES | melting point [°C] | EC50 [1] [µM] | Selectivity index (SI) HT29 [1] | EC50 (518A2 (melanoma)) [µM] | Selectivity index (SI) 518A2 (518A2 (melanoma)) | EC50 [2] [µM] | Selectivity index (SI) A2780 [2] | EC50 [3] [µM] | EC50 [4] [µM] | Selectivity index (SI) MCF-7 [4] | EC50 [5] [µM] | Selectivity index (SI) 8505C [5]
1 | C=C(C)[C@@H]1CC[C@]2(C(=O)O)CC[C@]3(C)[C@H](CC[C@@H]4[C@@]5(C)CC[C@H](O)C(C)(C)[C@@H]5CC[C@]43C)[C@@H]12 [BA, betulinic acid, reference compound] |  | 14.4 ± 2.3 | 0.91 | 9.4 ± 0.7 | 1.39 | 8.8 ± 0.9 | 1.49 | 13.1 ± 1.1 | 10.2 ± 1.2 | 1.28 |  | 
2 | CC(=O)O[C@H]1CC[C@@]2(C)C(CC[C@]3(C)C2CC=C2C4[C@@H](C)[C@H](C)CC[C@]4(C(=O)NCCN)CC[C@]23C)C1(C)C (stereo partly drawn) [Compound 3, (3β)-N-(2-Aminoethyl)-3-acetyloxy-urs-12-en-28-amide] | 202 to 205 | 1.8 ± 0.1 | 1.44 | 2.7 ± 0.1 | 0.96 | 2.3 ± 0.1 | 1.13 | 2.6 ± 0.3 | 2 ± 0.1 | 1.30 | 4.1 ± 0.4 | 0.63
3 | CC(=O)O[C@H]1CC[C@@]2(C)C(CC[C@]3(C)C2CC=C2C4[C@@H](C)[C@H](C)CC[C@]4(C(=O)NCCN(C)C)CC[C@]23C)C1(C)C (stereo partly drawn) [Compound 4, (3β)-N-[2-(Dimethylamino)ethyl]-3-acetyloxy-urs-12-en-28-amide] | 121 to 124 | 3.4 ± 0.3 | 1.09 | 5.3 ± 0.4 | 0.70 | 3.6 ± 0.4 | 1.03 | 3.7 ± 0.2 | 3.3 ± 0.7 | 1.12 | 8.3 ± 0.7 | 0.45
4 | CC(=O)O[C@H]1CC[C@@]2(C)C(CC[C@]3(C)C2CC=C2C4[C@@H](C)[C@H](C)CC[C@]4(C(=O)NCCN4CCCCC4)CC[C@]23C)C1(C)C (stereo partly drawn) [Compound 6, (3β)-N-(2-Piperidin-1-ylethyl)-3-acetyloxy-urs-12-en-28-amide] | 124 to 127 | 4.2 ± 0.5 | 1.71 | 12.2 ± 0.3 | 0.59 | 6.5 ± 0.5 | 1.11 | 7.2 ± 1.2 | 6 ± 0.9 | 1.20 | 15.5 ± 2.7 | 0.46

Continued, in another order:

Row | melting point [°C] | SMILES | EC50 [1] [µM] | Selectivity index (SI) HT29 [1] | EC50 (518A2 (melanoma)) [µM] | Selectivity index (SI) 518A2 (518A2 (melanoma)) | EC50 [2] [µM] | Selectivity index (SI) A2780 [2] | EC50 [3] [µM] | EC50 [4] [µM] | Selectivity index (SI) MCF-7 [4] | EC50 [5] [µM] | Selectivity index (SI) 8505C [5]
5 | 156 to 159 | CC(=O)O[C@H]1CC[C@@]2(C)C(CC[C@]3(C)C2CC=C2C4[C@@H](C)[C@H](C)CC[C@]4(C(=O)NCCN4CCCC4)CC[C@]23C)C1(C)C (stereo partly drawn) [Compound 5, (3β)-N-(2-Pyrrolidin-1-ylethyl)-3-acetyloxy-urs-12-en-28-amide] | 2.1 ± 0.2 | 1.57 | 4.5 ± 0.2 | 0.73 | 3.1 ± 0.2 | 1.06 | 3.3 ± 0.3 | 2.9 ± 0.7 | 1.14 | 4.3 ± 0.2 | 0.77
6 | 145 to 147 | CC(=O)O[C@H]1CC[C@@]2(C)C(CC[C@]3(C)C2CC=C2C4[C@@H](C)[C@H](C)CC[C@]4(C(=O)NCCN4CCNCC4)CC[C@]23C)C1(C)C (stereo partly drawn) [Compound 7, (3β)-N-(2-Piperazin-1-ylethyl)-3-acetyloxy-urs-12-en-28-amide] | 1.8 ± 0.2 | 1.22 | 3.2 ± 0.1 | 0.69 | 2.4 ± 0.1 | 0.92 | 2.2 ± 0.1 | 2.7 ± 0.3 | 0.81 | 5.4 ± 0.4 | 0.41

Source: article PMC6222718, “Ethylenediamine Derived Carboxamides of Betulinic and Ursolic Acid as Potential Cytotoxic Agents” (Molecules : A Journal of Synthetic Chemistry and Natural …, 2018)
